Source: patent publication US11072581B2, “N-acyl-arylsulfonamide derivatives as aminoacyl-tRNA synthetase inhibitors” (Oxford Drug Design Limited, priority 2015, dated 2021)
Read-outs that look alike come from different tables or passages of the source.

How the values were obtained:
[1] = target: T1, SauLRS (leucyl-tRNA synthetase from Staphylococcus aureus) (Staphylococcus aureus, UniProt Q2FXH2); experiment: aaRS aminoacylation assay (ATP consumption), SauLRS; type: biochemical
T1 construct: made in house; host or cells: Escherichia coli M15
T1 sequence (Q2FXH2 1-805): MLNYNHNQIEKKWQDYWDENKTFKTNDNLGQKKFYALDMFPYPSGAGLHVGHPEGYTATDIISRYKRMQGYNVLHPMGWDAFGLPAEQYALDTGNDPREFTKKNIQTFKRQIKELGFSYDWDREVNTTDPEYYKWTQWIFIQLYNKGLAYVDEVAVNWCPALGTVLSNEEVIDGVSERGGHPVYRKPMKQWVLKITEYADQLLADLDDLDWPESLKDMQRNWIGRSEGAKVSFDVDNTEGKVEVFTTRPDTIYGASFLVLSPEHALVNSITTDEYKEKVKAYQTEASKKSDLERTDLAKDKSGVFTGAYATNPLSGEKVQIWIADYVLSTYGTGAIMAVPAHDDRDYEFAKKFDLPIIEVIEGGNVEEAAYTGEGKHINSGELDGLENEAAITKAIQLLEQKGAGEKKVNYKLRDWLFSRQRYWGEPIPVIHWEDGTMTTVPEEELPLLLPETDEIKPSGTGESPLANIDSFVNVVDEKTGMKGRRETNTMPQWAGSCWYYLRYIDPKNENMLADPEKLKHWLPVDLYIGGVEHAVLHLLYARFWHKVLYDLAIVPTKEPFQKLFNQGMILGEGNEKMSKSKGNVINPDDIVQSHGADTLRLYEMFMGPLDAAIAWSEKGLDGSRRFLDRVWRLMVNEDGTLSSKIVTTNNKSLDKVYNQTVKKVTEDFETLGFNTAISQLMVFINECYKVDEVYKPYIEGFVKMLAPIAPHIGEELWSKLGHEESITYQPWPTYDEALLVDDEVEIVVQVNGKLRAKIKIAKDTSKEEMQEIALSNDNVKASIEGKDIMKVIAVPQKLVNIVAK
Procedure: (§1) The compounds have been tested for antibacterial activity in vitro as aminoacyl-tRNA synthetases (aaRS) inhibitors following the following process.
(§2) Leucyl-, valyl- and isoleucyl-tRNA synthetases (LRS, VRS and IRS, respectively) from Escherichia coli (Eco) and Staphylococcus aureus (Sau).
(§3) Escherichia coli M15 cells transformed with plasmid pQE-60, or pQE-70, containing the open-reading frame sequence of one targeted aaRS were induced with 1 mM IPTG (Isopropyl β-D-1-thiogalactopyranoside) for 3 h at 37° C. Bacterial cells were harvested and lysed with 20 mM NaH2PO4 (pH 8.0), 200 mM NaCl, 10 mM imidazole and protease inhibitor cocktail (Roche). Pathogenic aaRS was purified by nickel affinity standard chromatography. Protein concentration was determined by spectrophotometry.
(§4) tRNA^Leu, tRNA^Val and tRNA^Ile from E. coli and S. aureus were transcribed in vitro for 4 h at 37° C. using T7 RNA polymerase. Transcription reaction contained 40 mM Tris-HCl (pH 8.0), 22 mM MgCl2, 1 mM spermidine, 5 mM DTT, 0.01% Triton X-100, 4 mM GTP, 4 mM ATP, 4 mM UTP, 4 mM CTP, 16 mM GMP, […] T7 RNA polymerase and 150 μg BstNI digested plasmid. Once finished, the reaction was applied on a 6% polyacrylamide-8 M urea denaturing gel to purify the transcribed tRNA and discard any impurities. Purified tRNA was quantified with Nanodrop 2000 (Thermo Scientific).
(§5) The aminoacylation reaction catalyzed by aminoacyl-tRNA synthetases (aaRS) takes place in two steps. In the first step, aaRS activates its cognate amino acid with ATP; and in the second step the activated amino acid is loaded to its corresponding tRNA. This reaction can be summarized as follows: ARS+aa+ATP=ARS-aa-AMP+PPi ARS-aa-AMP+tRNA=aa-tRNA+AMP+ARS [2] (ARS, Aminoacyl-tRNA synthetase; aa, amino acid; ARS-aa-AMP, enzyme-bound to aminoacyl-adenylate; aa-tRNA, aminoacyl-tRNA).
(§6) The activity of the pathogenic aaRSs was monitored by measuring the ATP consumption rate, since this consumption is directly proportional to the activity of the aaRS. If the tested compound, at a single point concentration of 50 μM, is inhibiting the aminoacylation reaction, there is a decrease in the ATP consumption, compared to the control reaction without compound, allowing the calculation of an inhibition ratio.
(§7) When the inhibition ratio for a given compound was above 80%, IC50 determination was performed with the same enzymatic assay (using the commercial kit Kinase RR from BioThema AB, Sweden) in the presence of serial dilutions of inhibitor. Known inhibitors of LRS, VRS or IRS were used as a positive control of the assay. The IC50 was calculated based on nonlinear regression analysis.

[2] = target: T2, SauVRS (valyl-tRNA synthetase from Staphylococcus aureus) (Staphylococcus aureus, UniProt Q2FXR8); experiment: aaRS aminoacylation assay (ATP consumption), SauVRS; type: biochemical; settings: i.a. = inactive at a concentration below 50 uM
T2 construct: made in house; host or cells: Escherichia coli M15
T2 sequence (Q2FXR8 1-876): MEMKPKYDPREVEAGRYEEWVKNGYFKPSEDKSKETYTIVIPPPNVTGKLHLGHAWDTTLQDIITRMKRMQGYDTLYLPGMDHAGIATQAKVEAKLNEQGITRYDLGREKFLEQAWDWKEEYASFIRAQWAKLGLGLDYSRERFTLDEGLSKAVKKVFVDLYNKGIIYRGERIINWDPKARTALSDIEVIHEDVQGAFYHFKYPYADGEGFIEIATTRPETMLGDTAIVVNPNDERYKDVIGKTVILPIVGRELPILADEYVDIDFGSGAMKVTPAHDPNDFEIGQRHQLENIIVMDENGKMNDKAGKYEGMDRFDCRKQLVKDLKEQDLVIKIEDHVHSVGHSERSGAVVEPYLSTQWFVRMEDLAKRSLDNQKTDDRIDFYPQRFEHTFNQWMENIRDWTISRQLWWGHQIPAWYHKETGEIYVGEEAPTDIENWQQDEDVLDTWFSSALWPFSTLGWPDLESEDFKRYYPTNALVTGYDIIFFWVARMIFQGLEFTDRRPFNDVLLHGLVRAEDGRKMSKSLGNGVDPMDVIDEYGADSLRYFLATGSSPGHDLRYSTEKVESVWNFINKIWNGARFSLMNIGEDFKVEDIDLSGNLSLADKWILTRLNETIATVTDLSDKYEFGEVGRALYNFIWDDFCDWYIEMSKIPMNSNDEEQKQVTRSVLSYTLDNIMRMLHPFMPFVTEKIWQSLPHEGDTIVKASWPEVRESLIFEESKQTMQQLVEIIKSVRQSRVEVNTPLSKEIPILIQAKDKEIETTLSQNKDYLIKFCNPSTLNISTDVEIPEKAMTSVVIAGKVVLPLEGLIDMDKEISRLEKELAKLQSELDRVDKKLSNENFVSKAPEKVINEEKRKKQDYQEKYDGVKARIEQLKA
Procedure: as §1, §2, §3, §4, §5, §6, §7

[3] = i.a. = inactive at a concentration below 50 uM, read-out: IC50 SauLRS
[4] = i.a. = inactive at a concentration below 50 uM

Row | SMILES | IC50 [1, 3] | IC50 SauVRS [2] | IC50 SauLRS [1, 4] | IC50 [1]
1 | CSc1cc(-c2cccc(S(=O)(=O)NC(=O)[C@@H](N)CC(C)C)c2)nc(N)n1 [Compound 5.29] | 1200 nM | i.a | – | –
2 | Cc1cc(-c2cccc(S(=O)(=O)NC(=O)[C@@H](N)CC3CC3)c2)nc(N)n1 [Compound 5.30] | – | i.a | i.a | –
3 | Cc1cc(-c2cccc(S(=O)(=O)NC(=O)[C@@H](N)CC3CCC3)c2)nc(N)n1 [Compound 5.31] | – | i.a | i.a | –
4 | Cc1cc(-c2cccc(S(=O)(=O)NC(=O)[C@@H](N)C3CC3)c2)nc(N)n1 [Compound 5.33] | – | i.a | i.a | –
5 | Cc1cc(-c2cccc(S(=O)(=O)NC(=O)[C@@H](N)CC3CCCCC3)c2)nc(N)n1 [Compound 5.34] | – | i.a | i.a | –
6 | Cc1cc(-c2cccc(S(=O)(=O)NC(=O)[C@@H](N)CC(C)C)c2)nc(N)n1 [Compound 5.35, (S)-2-amino-N-((3-(2-amino-6-methylpyrimidin-4-yl)phenyl)sulfonyl)-4-methylpentanamide] | 4340 nM | i.a. | – | –
7 | COc1cc(-c2cccc(S(=O)(=O)NC(=O)[C@@H](N)CC(C)C)c2)nc(N)n1 [Compound 5.36] | 3000 nM | i.a. | – | –
8 | CC(C)C[C@H](N)C(=O)NS(=O)(=O)c1cccc(-c2ccnc(N)n2)c1 [Compound 5.37] | 2180 nM | i.a. | – | –
9 | CC(C)C[C@H](N)C(=O)NS(=O)(=O)c1cccc(-c2nc(N)nc3nc[nH]c23)c1 [Compound 5.38] | 1110 nM | i.a. | – | –
10 | Cc1cc(-c2cccc(S(=O)(=O)NC(=O)[C@@H](N)CC(C)C)c2)ncn1 [Compound 5.39] | 2000 nM | i.a. | – | –
11 | CC[C@H](C)[C@H](N)C(=O)NS(=O)(=O)c1cccc(-c2cc(C)nc(N)n2)c1 [Compound 5.40] | – | i.a. | i.a. | –
12 | CC(C)C[C@H](N)C(=O)NS(=O)(=O)c1cccc(-c2cc(-c3ccccc3)nc(N)n2)c1 [Compound 5.41] | 3000 nM | i.a. | – | –
13 | CC(C)C[C@H](N)C(=O)NS(=O)(=O)c1cccc(-c2ccncc2)c1 [Compound 5.42] | – | i.a. | – | 810 nM
14 | CC(C)C[C@H](N)C(=O)NS(=O)(=O)c1cccc(-c2ccnc(N)c2)c1 [Compound 5.43] | 330 nM | i.a. | – | –
15 | CC(C)C[C@H](N)C(=O)NS(=O)(=O)c1cccc(-c2cccc(N)n2)c1 [Compound 5.44] | 1640 nM | i.a. | – | –
16 | CC(C)C[C@H](N)C(=O)NS(=O)(=O)c1cccc(-c2cc(N)nc(N)n2)c1 [Compound 5.45] | 720 nM | i.a. | – | –
17 | CC(C)C[C@H](N)C(=O)NS(=O)(=O)c1cccc(-c2cc(N)ncn2)c1 [Compound 5.46] | 1300 nM | i.a. | – | –
18 | CCc1cc(-c2cccc(S(=O)(=O)NC(=O)[C@@H](N)CC(C)C)c2)nc(N)n1 [Compound 5.47] | 2150 nM | i.a. | – | –
19 | CC(C)C[C@H](N)C(=O)NS(=O)(=O)c1cccc(-c2ncnc(N)n2)c1 [Compound 5.48] | 530 nM | i.a. | – | –
20 | CC(C)C[C@H](N)C(=O)NS(=O)(=O)c1cccc(-c2ccnc(Cl)n2)c1 [Compound 5.49] | 6230 nM | i.a. | – | –
21 | CC(C)C[C@H](N)C(=O)NS(=O)(=O)c1cccc(-c2ccnc(O)n2)c1 [Compound 5.50] | 13900 nM | i.a. | – | –
